The source of these data is patent publication US6794389B2, “Quinazoline derivatives and drugs” (Nippon Shinyaku Co., Ltd., priority 2000, dated 2004).

The term Ki denotes the dissociation constant of the complex between target and ligand, obtained from inhibition or displacement.

Values joined by “and” are separate entries in the source; they are usually repeats but may differ in a detail not shown here. Equal entries are not always repeated. Structures can show the parent of a compound that is named as a salt.

One experiment deals with T1, μ-receptor (Homo sapiens, UniProt P35372).
T1 construct: purchased Receptor Biology
T1 sequence (P35372 whole entry): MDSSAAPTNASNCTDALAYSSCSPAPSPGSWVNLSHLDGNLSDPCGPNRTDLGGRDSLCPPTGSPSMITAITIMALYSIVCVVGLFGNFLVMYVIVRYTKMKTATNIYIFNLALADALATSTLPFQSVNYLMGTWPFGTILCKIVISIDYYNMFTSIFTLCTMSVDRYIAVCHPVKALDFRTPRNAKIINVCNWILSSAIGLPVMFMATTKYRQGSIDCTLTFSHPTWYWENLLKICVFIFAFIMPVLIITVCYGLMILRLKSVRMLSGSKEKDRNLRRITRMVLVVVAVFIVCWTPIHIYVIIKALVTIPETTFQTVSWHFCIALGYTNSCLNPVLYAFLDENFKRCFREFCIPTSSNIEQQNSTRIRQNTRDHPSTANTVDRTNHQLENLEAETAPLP
The experiment is described as follows: μ-Receptor binding assay ([3H]diprenorphine, cell membrane preparation). The following applies: [3H]diprenorphine 0.13 nM, 25° C., 90 minutes; Ki calculated from IC50 and Kd; read-out: Affinity for μ-receptor Ki. As to the method: A human μ-receptor-expressing cell membrane preparation (Receptor Biology) was prepared so that it contained 8.5 μg/mL of the membrane protein in a Tris buffer [50 mM Tris-HCl (pH 7.8), 5 MM MgCl2, 1 mM EGTA, 0.1% BSA]. To this, [^3H]diprenorphine (diluted at the final concentration of 0.13 nM with the Tris buffer) and a tested substance were added and the mixture was incubated at 25° C. for 90 minutes. Using a cell harvester and a washing solution [50 mM Tris-HCl (pH 7.8), 4° C.], the membrane was recovered onto a GF/B filter which had been pretreated with 0.3% PEI, which was then washed further 4 times. The filter was transferred to a vial, to which a scintillator was added, and the radioactivity was measured using a liquid scintillation counter. A non-specific binding was regarded as a binding in the presence of 100 μM naloxone, and a specific binding was obtained by subtracting the non-specific binding from the total binding. From a ratio of binding inhibition in the presence of the tested substance, and IC50 value was obtained, and was then used together with the Kd value for [^3H]diprenorphine to calculate the Ki value of the tested substance.

The next experiment addresses T2, nociceptin receptor (Homo sapiens, UniProt P41146).
T2 construct: expressed in transfected cells
The experiment is described as follows: Nociceptin receptor binding assay ([3H]nociceptin, cell membrane suspension). The following applies: [3H]nociceptin 0.08 nM, 25° C., 60 minutes; Ki calculated from IC50 and Kd; read-out: Affinity for nociceptin receptors Ki. As to the method:
A cell membrane suspension obtained from a human nociceptin-expressing cell was prepared so that it contained 5 to 10 μg/mL of the membrane protein in a Tris buffer [50 mM Tris-HCl (pH 7.8), 5 mM MgCl2, 1 mM EGTA, 0.1% BSA]. To this, [^3H]nociceptin (diluted at the final concentration of 0.08 nM with the Tris buffer) and a tested substance were added and the mixture was incubated at 25° C. for 60 minutes. Using a cell harvester and a washing solution [50 mM Tris-HCl (pH 7.8), 4° C.], the membrane was recovered onto a GF/B filter which had been pretreated with 0.3% PEI, which was then washed further 4 times. The filter was transferred to a vial, to which a scintillator was added, and the radioactivity was measured using a liquid scintillation counter. Noted that a non-specific binding was regarded as a binding in the presence of 10 μM nociceptin, and a specific binding was obtained by subtracting the non-specific binding from the total binding. From a ratio of binding inhibition in the presence of the tested substance, an IC50 value was obtained, and was then used together with the Kd value for [^3H]nociceptin to calculate the K1 value for the tested substance.

Experiment [1] deals with acetic acid-induced writhing reactions in mice. The experiment can be described thus: Acetic acid-writhing test in mice. It is filed as in vivo, mice (Slc:ddY). The conditions noted are these: 10 nmol/animal intrathecal, male mice, counted over 20 minutes after 0.6% acetic acid intraperitoneally; for Number of writhings (individual animal): animal No. 1-10; for Number of writhings (Mean): mean of 10 animals (saline control 17.67). Here is the method:
Ten male mice (Slc:ddY, 4 to 5 weeks old) were assigned to each group. The dorsal skin of each mouse was incised laterally in a length of approximately 3 cm, and after acclimatizing for 30 minutes or longer a 27G needle fitted on the tip of a silicone tube connected to a microsyringe was inserted into a position around L3-L4, through which 5 μL of a drug solution was infused, whereby effecting an administration into a spinal subarachnoid cavity. The tested substance was dissolved in physiological saline, and administered at 10 nmol/animal. In a control group, physiological saline was administered similarly.
A mouse which had been fasting since the day before the experiment was placed in an observation cage (20×20×15 cm), where it was allowed to be acclimatized over a period of 30 minutes or longer, and then received 100 μL per 10 g body weight of a 0.6% acetic acid solution intraperitoneally via a 27G needle. The number of the writhing reactions with stretching the abdomen was counted over 20 minutes after the administration of acetic acid, and the obtained data were represented as means±standard errors. Only the screening data were subjected to the test for a significant difference by a t test between the two groups of the control and a treatment group or by one-way analysis of variance among multiple groups followed by Dunnett's multiple comparison test, and the significant difference was regarded to be present when p<0.05.
On the technique in general: An intraperitoneal irritant provokes the stretching counted in writhing tests.

T2 sequence (P41146 whole entry): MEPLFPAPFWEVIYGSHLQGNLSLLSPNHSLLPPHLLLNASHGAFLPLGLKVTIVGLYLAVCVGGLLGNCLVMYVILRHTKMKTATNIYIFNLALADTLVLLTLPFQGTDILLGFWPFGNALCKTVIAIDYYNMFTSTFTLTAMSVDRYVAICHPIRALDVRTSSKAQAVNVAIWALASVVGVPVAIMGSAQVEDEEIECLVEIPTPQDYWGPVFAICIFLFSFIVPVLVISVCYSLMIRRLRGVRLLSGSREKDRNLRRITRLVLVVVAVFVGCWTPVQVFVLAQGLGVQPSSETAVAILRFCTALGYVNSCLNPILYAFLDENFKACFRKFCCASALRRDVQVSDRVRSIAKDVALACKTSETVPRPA

Take `COc1ccc2nc(NC(=O)c3ccc(Cl)cc3)nc(N[C@H]3CCCC[C@H]3NC(=N)N)c2c1` (relative stereo) [Example 2, cis-N-Amidino-2-[2-(4-chlorobenzoylamino)-6-methoxyquinazolin-4-yl]aminocyclohexylamine Dihydrochloride]: the values for the Ki at μ-receptor and at nociceptin receptor were 193 nM and 6 nM, respectively.

On to `COc1ccc2nc(C=Cc3ccccn3)nc(N[C@H]3CC[C@@H](CNC(=N)N)C[C@H]3C)c2c1` (relative stereo) [Example 68, cis-4-Guanidinomethyl-cis-2-methyl-N-{6-methoxy-2-[2-(2-pyridyl)ethenyl]quinazolin-4-yl}cyclohexylamine Trihydrochloride], for which the Ki was 32 nM on μ-receptor and 3 nM at nociceptin receptor.

Turning to `Cc1ccc2nc(C=Cc3ccccn3)nc(NCCCCCCNC(=N)N)c2c1.Cl.Cl.Cl` [Example 46, N-Amidino-N′-{6-methyl-2-[2-(2-pyridyl)ethenyl]quinazolin-4-yl}-1,6-hexanediamine Trihydrochloride], the Ki was 23 nM at μ-receptor and 3 nM at nociceptin receptor. The “Number of writhings (individual animal)” value in experiment [1] (listed as Ex. 46, Trihydrochloride) was 0 (4×) and 13 and 6 and 3 and 10 and 4 and 9. Also, the “Number of writhings (Mean)” value in experiment [1] is given as 4.50.

Turning to `COc1ccc2nc(C=Cc3ccccn3)nc(NC[C@H]3CC[C@@H](CNC(=N)N)CC3)c2c1` [Example 44, cis-N-Amidino-N′-{6-methoxy-2-[2-(2-pyridyl)ethenyl]quinazolin-4-yl}-1,4-bis(aminomethyl)cyclohexane Trihydrochloride], the Ki is 30 nM at μ-receptor and 7 nM on nociceptin receptor.

For the compound `COc1ccc2nc(C=Cc3ccccn3)nc(NC(C)CCCCCNC(=N)N)c2c1.Cl.Cl.Cl` (stereo not drawn) [Example 48, N-Amidino-6-{6-methoxy-2-[2-(2-pyridyl)ethenyl]quinazolin-4-yl}aminoheptylamine Trihydrochloride], the “Number of writhings (individual animal)” value in experiment [1] (listed as Ex. 48, Trihydrochloride) is 7 and 0 (4×) and 6 and 16 and 1 and 14 and 12. The “Number of writhings (Mean)” value in experiment [1] was found to be 5.60.

For the compound `COc1ccc2nc(C=Cc3ccc(Cl)cc3)nc(NCCCCCCNC(=N)N)c2c1` [Example 16, N-Amidino-N′-[2-(4-chlorostyryl)-6-methoxyquinazolin-4-yl]-1,6-hexanediamine Dihydrochloride], the Ki on μ-receptor is 38 nM; on nociceptin receptor, 9 nM.

Take `COc1ccc2nc(C=Cc3ccccn3)nc(NCCCCCCNC(=N)N)c2c1.Cl.Cl` [Example 23, N-Amidino-N′-{6-methoxy-2-[2-(2-pyridyl)ethenyl]quinazolin-4-yl}-1,6-hexanediamine Dihydrochloride]: the figures for the Ki on μ-receptor and on nociceptin receptor were 19 nM and 3 nM, respectively. For the same compound, the “Number of writhings (individual animal)” value in experiment [1] (listed as Ex. 23, Dihydrochloride) is 14 and 0 (5×) and 6 and 18 and 28 and 3. Also, the “Number of writhings (Mean)” value in experiment [1] came out at 6.90.

For the compound `COc1ccc2nc(C=Cc3ccccn3)nc(NCCN(CCc3ccccc3)C(=N)N)c2c1` [Example 66, N-Amidino-2-{6-methoxy-2-[2-(2-pyridyl)ethenyl]quinazolin-4-yl}aminoethyl-phenylethylamine Trihydrochloride], the Ki on μ-receptor was 22 nM; on nociceptin receptor, 4 nM.

As for “cis-4-Guanidinomethyl-N-{2-[2-(2-pyridyl)ethenyl]-6-methoxyquinazolin-4-yl}cyclohexylamine Trihydrochloride [Example 4]”, the Ki on μ-receptor was 63 nM; on nociceptin receptor, 8 nM. Moreover, the “Number of writhings (individual animal)” value in experiment [1] (listed as Ex. 4, Trihydrochloride) was 18 and 12 (2×) and 10 and 0 (2×) and 2 and 11 and 1 and 13. Besides, the “Number of writhings (Mean)” value in experiment [1] turned out to be 7.90.
